No end group written: not given here.
How the values were obtained:
S. aureus USA300 = experiment: Antimicrobial testing (bactericidal, CFU) against S. aureus USA300; format: cell-based, Staphylococcus aureus; conditions: for S. aureus USA300 CFU normalized to untreated control (1.00): 3 h, mean of at least three experiments
Procedure: Fig. 5 Synergistic action of lugdunin and human antimicrobial peptides (AMPs) kills methicillin-resistant S. aureus (MRSA). a, c Logarithmically grown (3 × 10^6) S. aureus were incubated with indicated combinations of lugdunin and human AMPs in phosphate-buffered saline (PBS) containing 0.1% tryptic soy broth (TSB) at 37 °C orbital shaking (white bar, untreated; dark gray bars, AMP treatment; middle gray bars, lugdunin treatment; light gray bars, AMP and lugdunin combination treatment). After 3 h of incubation, several dilutions of the bacterial suspensions were plated onto TSB agar plates and incubated overnight at 37 °C. The next day S. aureus colony-forming units (CFUs) were counted. Each experiment was performed in triplicates. Data represent the percentage of CFU of at least three independent experiments normalized to the untreated control ± s.e.m. Significant differences to control treatments were analyzed by ordinary one-way analysis of variance (ANOVA) followed by Dunnett’s multiple comparisons test (*P < 0.05; **P < 0.01; ***P < 0.001; ****P < 0.0001). b Combination indices (CIs) were calculated using CompuSyn (ComboSyn Inc.) and indicated in median effect plots as a function of the bacteria fractions affected by the combinatorial peptide treatment. CI values of 1 indicate additive effects, whereas values <1 and >1 indicate synergistic and antagonistic effects, respectively. Source data are provided as a Source Data file TEXT PRINTED IN THE PICTURE: (a) DCD-1: S. aureus USA300, Lugdunin μM 0: 1.00 (DCD-1 μM: 0); S. aureus USA300, Lugdunin μM 1: 1.08 (DCD-1 μM: 0); S. aureus USA300, Lugdunin μM 2: 1.11 (DCD-1 μM: 0); S. aureus USA300, Lugdunin μM 3: 0.97 (DCD-1 μM: 0); S. aureus USA300, Lugdunin μM 0: 1.06 (DCD-1 μM: 1); S. aureus USA300, Lugdunin μM 1: 0.91 (DCD-1 μM: 1); S. aureus USA300, Lugdunin μM 2: 0.85 (DCD-1 μM: 1); S. aureus USA300, Lugdunin μM 3: 0.60 (DCD-1 μM: 1); S. aureus USA300, Lugdunin μM 0: 1.19 (DCD-1 μM: 2); S. aureus USA300, Lugdunin μM 1: 0.84 (DCD-1 μM: 2); S. aureus USA300, Lugdunin μM 2: 0.43 (DCD-1 μM: 2); S. aureus USA300, Lugdunin μM 3: 0.21 (DCD-1 μM: 2) | (a) DCD-1L: S. aureus USA300, Lugdunin μM 0: 1.00 (DCD-1L μM: 0); S. aureus USA300, Lugdunin μM 1: 1.08 (DCD-1L μM: 0); S. aureus USA300, Lugdunin μM 2: 1.11 (DCD-1L μM: 0); S. aureus USA300, Lugdunin μM 3: 0.97 (DCD-1L μM: 0); S. aureus USA300, Lugdunin μM 0: 1.13 (DCD-1L μM: 1); S. aureus USA300, Lugdunin μM 1: 0.98 (DCD-1L μM: 1); S. aureus USA300, Lugdunin μM 2: 0.68 (DCD-1L μM: 1); S. aureus USA300, Lugdunin μM 3: 0.07 (DCD-1L μM: 1); S. aureus USA300, Lugdunin μM 0: 1.37 (DCD-1L μM: 2); S. aureus USA300, Lugdunin μM 1: 0.60 (DCD-1L μM: 2); S. aureus USA300, Lugdunin μM 2: 0.42 (DCD-1L μM: 2); S. aureus USA300, Lugdunin μM 3: 0.02 (DCD-1L μM: 2) | (a) IL-37: S. aureus USA300, Lugdunin μM 0: 1.00 (IL-37 μM: 0); S. aureus USA300, Lugdunin μM 1: 1.08 (IL-37 μM: 0); S. aureus USA300, Lugdunin μM 2: 1.11 (IL-37 μM: 0); S. aureus USA300, Lugdunin μM 3: 0.97 (IL-37 μM: 0); S. aureus USA300, Lugdunin μM 0: 1.86 (IL-37 μM: 1); S. aureus USA300, Lugdunin μM 1: 1.27 (IL-37 μM: 1); S. aureus USA300, Lugdunin μM 2: 1.23 (IL-37 μM: 1); S. aureus USA300, Lugdunin μM 3: 1.90 (IL-37 μM: 1); S. aureus USA300, Lugdunin μM 0: 2.49 (IL-37 μM: 2); S. aureus USA300, Lugdunin μM 1: 1.28 (IL-37 μM: 2); S. aureus USA300, Lugdunin μM 2: 0.89 (IL-37 μM: 2); S. aureus USA300, Lugdunin μM 3: 0.38 (IL-37 μM: 2) DOUBTS OF THE COPYIST ABOUT THIS PICTURE: Panel a, third matrix: the row label reads IL-37, but it may be LL-37, as printed in panels b and c. / Panel a: the picture prints no measure for the matrix numbers, only the colour scale 'Growth – Killing, S. aureus USA300'. Each cell is a combination of Lugdunin (column, μM) with the peptide (row, μM). / Panel a: rows and columns at 0 μM are a single agent or the untreated control. […]

E. faecalis = experiment: Antimicrobial testing (CFU) against E. faecalis; format: cell-based, Enterococcus faecalis; conditions: 3 h, mean
[1] = single peptide 0.4 µM, PBS + 0.1% TSB, 37 °C

Substance	S. aureus USA300 CFU normalized to untreated control (1.00) (S. aureus USA300; [1])	S. aureus USA300 CFU normalized to untreated control (1.00) (S. aureus USA300; single peptide 0.6 µM)	S. aureus USA300 CFU normalized to untreated control (1.00) (S. aureus USA300; single peptide 0.8 µM)	S. aureus USA300 CFU normalized to untreated control (1.00) (S. aureus USA300; single peptide 1 µM)	S. aureus USA300 CFU normalized to untreated control (1.00) (S. aureus USA300; single peptide 2 µM)	E. faecalis CFU normalized to untreated control (1,00) (E. faecalis; single peptide 1 µM)	E. faecalis CFU normalized to untreated control (1,00) (E. faecalis; single peptide 2 µM)	E. faecalis CFU normalized to untreated control (1,00) (E. faecalis; single peptide 3 µM)	antimicrobial activity on co-incubation with human AMPs (in words) (S. aureus USA300; S. aureus USA300, text to Supp Figs 5, 6)
IASKFLCTPGCAKTGSFNSYCC (also: bicyclic or more (positions not given here)) [Gallidermin, bacteriocin isolated from Staphylococcus gallinarum]	0,84	0,91	0,74						
ITSISLCTPGCKTGALMGCNMKTATCHCSIHVSK (not fully specified (bridges); also: lanthionine rings, places not given here) [Nisin, bacteriocin of Lactococcus lactis, purchased from Sigma]	1,31	1,49	1,49						
LLGDFFRKSKEKIGKEFKRIVQRIKDFLRNLVPRTES [LL-37, human cathelicidin AMP]				1,86	2,49				
Lugdunin				1,08	1,11	1,21	1,27	0,99	
MEAVKEKNELFDLDVKVNAKESNDSGAEPRIASKFLCTPGCAKTGSFNSYCC [Pro-Gallidermin, non-bactericidal pro-form of gallidermin]	1,34	1,61	1,30						did not lead to antimicrobial activity
SSLLEKGLDGAKKAVGGLGKLGKDAVEDLESVGKGAVHDVKDVLDSV [DCD-1, dermcidin-derived human AMP of eccrine sweat glands]				1,06	1,19	1,48	1,58		
SSLLEKGLDGAKKAVGGLGKLGKDAVEDLESVGKGAVHDVKDVLDSVL [DCD-1L, dermcidin-derived human AMP of eccrine sweat glands]				1,13		1,40	1,55		
